Measured values: patent publication US20240343723A1, “CRYSTAL FORM OF LANIFIBRANOR, PREPARATION METHOD THEREFOR, AND USE THEREOF” (CRYSTAL PHARMACEUTICAL (SUZHOU) CO., LTD., priority 2021, published 2024)
“Also recorded” adds a separate entry of the source.

Assays:
Type in all cases: physicochemical
[1] = Dynamic vapor sorption (DVS) hygroscopicity, with XRPD before and after DVS; conditions: for weight gain from 0% to 70% RH: 25° C., cycle of 0%-95%-0% RH; for crystalline state after DVS (XRPD): humidity cycle 0%-95%-0% RH
Protocol: Dynamic Vapor Sorption (DVS) was measured via an SMS (Surface Measurement Systems Ltd.) intrinsic DVS instrument. The instrument control software is DVS-Intrinsic control software. Typical Parameters for DVS test are as follows: • Temperature: 25° C. • Gas and flow rate: N2, 200 mL/min • RH range: 0% RH to 95% RH Dynamic vapor sorption (DVS) analyzer was applied to evaluate the hygroscopicity of amorphous with a certain amount of sample obtained by Example 6. The weight gains at each relative humidity were recorded in a cycle of 0%-95%-0% RH. […] Dynamic vapor sorption (DVS) analyzer was applied to evaluate hygroscopicity of Form CSV with a certain amount of sample. The weight gains at each relative humidity were recorded in a cycle of 0%-95%-0% RH. Dynamic vapor sorption (DVS) analyzer was applied to evaluate hygroscopicity of Form CSIII with a certain amount of sample. The weight gains at each relative humidity were recorded in a cycle of 0%-95%-0% RH. The XRPD patterns of Form CSIII before and after DVS test are shown in FIG. 13 and the DVS curve of Form CSIII is shown in FIG. 13.

[2] = Physical and chemical stability on storage (XRPD, HPLC); conditions: for Form after storage: XRPD; for chemical purity during storage: HPLC
Protocol: A certain amount of Form CSV of the present disclosure was stored under different conditions of 40° C./75% RH and 60° C./75% RH. Crystalline form and chemical purity were checked by XRPD and HPLC, respectively. Open packaged: Put the sample into a glass vial, cover the vial with aluminum foil, and punch 5-10 holes in the foil. Sealed packaged: Put the sample into a glass vial, and seal the vial and desiccant in an aluminum foil bag. A certain amount of Form CSIII of the present disclosure was stored under different conditions of 25° C./60% RH and 40° C./75% RH with sealed and open packaged. Crystalline form and chemical purity were checked by XRPD and HPLC, respectively. Open packaged: Put the sample into a glass vial, cover the vial with an aluminum foil, and punch 5-10 holes in the foil. Sealed packaged: Put the sample into a glass vial, and seal the vial and desiccant in an aluminum foil bag.

[3] = Flowability by compressibility index (bulk and tapped density)
Protocol: Compressibility index is usually utilized to evaluate the flowability of powder or granules during the drug product process. Compressibility index test method is as follows: a certain amount of powder was added into a measuring cylinder and bulk volume was recorded. Then the powder was tapped to make it in the tightest state and the tapped volume was recorded. The bulk density (ρ0) and tapped density (ρf) were calculated and compressibility index was calculated according to c=(ρf−ρ0)/ρf.

[4] = Adhesiveness: material sticking to the punch after compression; conditions: about 30 mg, 8 mm round tooling, 10 kN held for 30s
Protocol: ENERPAC manual tablet press was used for testing. Approximately 30 mg of Form CSV was weighed and then added into the dies of @8 mm round tooling, compressed at 10 kN and held for 30s. The punch was weighed and the amount of material sticking to the punch was calculated. The compression was repeated twice and the maximum amount and average amount of material sticking to the punch during the compression were recorded.

[5] = Physical stability upon mechanical force (tableting, XRPD)
Description: A certain amount of Form CSV was compressed into tablet under different pressures with suitable tableting die. Crystalline form before and after tableting were checked by XRPD.

[6] = 40° C./75% RH, open and sealed package

weight gain from 0% to 70% RH ([1]; DVS) [%]	time for which the form is stable [2, 6]	Form after storage ([2]; 40° C./75% RH, open packaged, 9 months)	Form after storage ([2]; 40° C./75% RH, sealed packaged, 9 months)	time for which the form is stable ([2]; 60° C./75% RH, open and sealed package)	Form after storage ([2]; 60° C./75% RH, open packaged, 1 month)	Form after storage ([2]; 60° C./75% RH, sealed packaged, 1 month)	Bulk density [3] [g/mL]	Tapped density [3] [g/mL]	Flowability ([3]; class by compressibility index, ICH Q4B Annex 13)	average adhesion amount [4] [mg]	Solid form after tableting ([5]; Pressure 5 kN)	Solid form after tableting ([5]; Pressure 10 kN)	Solid form after tableting ([5]; Pressure 20 kN)	weight gain of amorphous from 0 to 70% RH relative to that of Form CSV ([1]; DVS, 0 to 70% RH)	weight gain from 0% to 70% RH ([1]; DVS, listed as prior art amorphous) [%]	chemical purity during storage ([2]; 25° C./60% RH, at least 6 months)	time for which the form is stable ([2]; 25° C./60% RH, sealed and open packaged)	chemical purity during storage ([2]; 40° C./75% RH, at least 2 months)	Compound	crystalline state after DVS (XRPD) [1]
0.35	at least 9 months	Form CSV	Form CSV	at least 1 month	Form CSV	Form CSV	0.412	0.515	Fair (16-20)	0.45	Form CSV	Form CSV	Form CSV	–	–	–	–	–	O=C(O)CCCc1cc2cc(Cl)ccc2n1S(=O)(=O)c1ccc2ncsc2c1 [Form CSV, 5-Chloro-1-[(6-benzothiazolyl)sulfonyl]-1H-indole-2-butanoic acid]	remains unchanged; also recorded: doesn't change
1.18	–	–	–	–	–	–	–	–	–	–	–	–	–	about 3.4 times	1.18	–	–	–	O=C(O)CCCc1cc2cc(Cl)ccc2n1S(=O)(=O)c1ccc2ncsc2c1 [amorphous, 5-Chloro-1-[(6-benzothiazolyl)sulfonyl]-1H-indole-2-butanoic acid, reference compound]	–
–	at least 2 months	–	–	–	–	–	–	–	–	–	–	–	–	–	–	above 99.5%	at least 6 months	above 99.5%	O=C(O)CCCc1cc2cc(Cl)ccc2n1S(=O)(=O)c1ccc2ncsc2c1 [Form CSIII, 5-Chloro-1-[(6-benzothiazolyl)sulfonyl]-1H-indole-2-butanoic acid]	remains unchanged
